For test [1], the system named is human multiple myeloma cell line, OPM-2. Kind of test: Cell viability assay (OPM-2 10 FBS), CellTiter-Glo. Format: cell-based. A digest of the protocol:
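Serially diluted test compounds are incubated 16 h with cells (3000/well) in RPMI 1640 supplemented with 10% FBS. Viability is then measured by luminescence and IC50 calculated by 4-parameter logistic fit.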

Test [2] deals with recombinant human Mcl-1 (residues 171-327) / Bim interaction (Homo sapiens (Human), UniProt Q07820). Kind of test: biochemical. The format is binding.
The mark [3] stands for this setting: Homo sapiens, OPM-2, 16 h, read-out: OPM-2 10% FBS IC50 IP, OPM-2 cells, 10% FBS, 16 h, CellTiter-Glo.
Where [4] appears, read: TR-FRET, Mcl-1(171-327) / biotin-Bim (51-76), read-out: Mcl-1 HTRF IC50.
[5] abbreviates: 0.1 nM Mcl-1(171-327), 0.05 nM biotin-Bim (51-76), read-out: Mcl-1 HTRF IC50.
The mark [6] stands for this setting: Homo sapiens, OPM-2, 16 h, read-out: OPM-2 10% FBS IC50 IP, OPM-2 cells, 10% FBS, 16 h incubation.

Molecules are shown by their SMILES. Read-outs that look alike come from different tables or passages of the source.

recombinant human Mcl-1 (residues 171-327) / Bim interaction, sequence (Q07820 171-327): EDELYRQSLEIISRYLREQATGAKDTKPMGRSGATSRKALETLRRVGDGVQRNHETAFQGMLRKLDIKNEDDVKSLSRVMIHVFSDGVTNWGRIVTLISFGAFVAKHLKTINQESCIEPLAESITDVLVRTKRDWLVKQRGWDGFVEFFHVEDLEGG

Regarding `CC(=O)N[C@@]1(C#N)CCC[C@H](C)[C@@H](C)S(=O)(=O)NC(=O)c2ccc3c(c2)N(C[C@@H]2CC[C@H]21)C[C@@]1(CCCc2cc(Cl)ccc21)CO3` [Example 100263, N-((1S,3′R,6′R,7′S,11′S,12′R)-6-chloro-7′-cyano-11′,12′-dimethyl-13′,13′-dioxido-15′-oxo-3,4-dihydro-2H-spiro[naphthalene-1,22′-[20]oxa[13]thia[1,14]diazatetracyclo [14.7.2.0~3,6~.0~19,24~]pentacosa[16,18,24]trien]-7′-yl)acetamide], the results for the half-inhibitory concentration (IC50) in test [1] (setting [3]) and in test [2] (setting [4]) were 3390 nM and 1.83 nM, respectively.

`CO[C@]1(CN2CCN3CCN(S(C)(=O)=O)C[C@@H]3C2)/C=C/C[C@H](C)[C@@H](C)S(=O)(=O)NC(=O)c2ccc3c(c2)N(C[C@@H]2CC[C@H]21)C[C@@]1(CCCc2cc(Cl)ccc21)CO3` [Example 227]: the IC50 in test [1] (read-out: OPM-2 10% FBS IC50 IP, OPM-2 cells, 10% FBS, 16 h incubation) turned out to be 131 nM; in test [2] (setting [5]), 0.207 nM.

As for `C[C@@H]1[C@@H](C)CCC[C@@](O)(CC(=O)N2CCOC2=O)[C@@H]2CC[C@H]2CN2C[C@@]3(CCCc4cc(Cl)ccc43)COc3ccc(cc32)C(=O)NS1(=O)=O` [Example 100153, (1S,3′R,6′R,7′R,11′S,12′R)-6-chloro-7′-hydroxy-11′,12′-dimethyl-7′-(2-oxo-2-(2-oxo-1,3-oxazolidin-3-yl)ethyl)-3,4-dihydro-2H,15′H-spiro[naphthalene-1,22′-[20]oxa[13]thia[1,14]diazatetracyclo [14.7.2.0~3,6~.0~19,24~]pentacosa[16,18,24]trien]-15′-one 13′,13′-dioxide], the IC50 was 4660 nM in test [1] (read-out: OPM-2 10% FBS IC50 IP, OPM-2 cells, 10% FBS, 16 h, CellTiter-Glo) and 0.738 nM in test [2] (setting [4]).

On to `C[C@@H]1[C@@H](C)C/C=C/[C@](O)(c2cnc(Cl)n2C)[C@@H]2CC[C@H]2CN2C[C@@]3(CCCc4cc(Cl)ccc43)COc3ccc(cc32)C(=O)NS1(=O)=O` (single isomer, unassigned) [Example 100543], for which the IC50 is 821 nM in test [1] (setting [3]) and 0.451 nM in test [2] (setting [4]).

For `C[C@@H]1[C@@H](C)CCC[C@@]2(OCCO[C@H]2C=O)[C@@H]2CC[C@H]2CN2C[C@@]3(CCCc4cc(Cl)ccc43)COc3ccc(cc32)C(=O)NS1(=O)=O` (single isomer, unassigned) [Example 100495], the figures for the IC50 in test [1] (setting [3]) and in test [2] (setting [4]) were 539 nM and 0.462 nM, respectively.

`C[C@@H]1[C@@H](C)C/C=C/[C@](O)([C@@H](C)C(=O)OC(C)(C)C)[C@@H]2CC[C@H]2CN2C[C@@]3(CCCc4cc(Cl)ccc43)COc3ccc(cc32)C(=O)NS1(=O)=O` (single isomer, unassigned) [Example 100110]: the half-maximal inhibitory concentration (IC50) in test [1] (setting [3]) amounted to 686 nM; in test [2] (setting [4]), 1.48 nM.

In the case of `C[C@@H]1[C@@H](C)CCC[C@@](C)(O)[C@@H]2CC[C@H]2CN2C[C@@]3(CCCc4cc(Cl)ccc43)COc3ccc(cc32)C(=O)NS1(=O)=O` (single isomer, unassigned) [Example 100048], the figures for the IC50 in test [1] (setting [3]) and in test [2] (setting [4]) were 551 nM and 0.187 nM, respectively.

Regarding `C[C@@H]1[C@@H](C)CCC[C@@](C=O)(CN2CCOCC2)[C@@H]2CC[C@H]2CN2C[C@@]3(CCCc4cc(Cl)ccc43)COc3ccc(cc32)C(=O)NS1(=O)=O` [Example 100336, (1S,3′R,6′R,7′S,11′S,12′R)-6-chloro-11′,12′-dimethyl-7′-(4-morpholinylmethyl)-15′-oxo-3,4-dihydro-2H-spiro[naphthalene-1,22′-[20]oxa[13]thia[1,14]diazatetracyclo [14.7.2.0~3,6~.0~19,24~]pentacosa[16,18,24]triene]-7′-carbaldehyde 13′,13′-dioxide], the IC50 in test [1] (setting [3]) turned out to be 1810 nM; in test [2] (read-out: Mcl-1 HTRF IC50), 1.12 nM.

On to `C[C@@H]1[C@@H](C)CCC[C@@](O)(CC(=O)N2CCN(C)CC2)[C@@H]2CC[C@H]2CN2C[C@@]3(CCCc4cc(Cl)ccc43)COc3ccc(cc32)C(=O)NS1(=O)=O` [Example 100167, (1S,3′R,6′R,7′R,11′S,12′R)-6-chloro-7′-hydroxy-11′,12′-dimethyl-7′-(2-(4-methyl-1-piperazinyl)-2-oxoethyl)-3,4-dihydro-2H,15′H-spiro[naphthalene-1,22′-[20]oxa[13]thia[1,14]diazatetracyclo [14.7.2.0~3,6~.0~19,24~]pentacosa[16,18,24]trien]-15′-one 13′,13′-dioxide], for which the IC50 was found to be 339 nM in test [1] (setting [3]) and 0.377 nM in test [2] (setting [4]).

As for `CO[C@@]1(CN2CCc3[nH]nnc3C2)/C=C/C[C@H](C)[C@@H](C)S(=O)(=O)NC(=O)c2ccc3c(c2)N(C[C@@H]2CC[C@H]21)C[C@@]1(CCCc2cc(Cl)ccc21)CO3` [Example 205, (1S,3′R,6′R,7′S,8′E,11′S,12′R)-6-chloro-7′-methoxy-11′,12′-dimethyl-7′-(1,4,6,7-tetrahydro-5H-[1,2,3]triazolo[4,5-c]pyridin-5-ylmethyl)-3,4-dihydro-2H,15′H-spiro[naphthalene-1,22′-[20]oxa[13]thia[1,14]diazatetracyclo [14.7.2.0~3,6~.0~19,24~]pentacosa[8,16,18,24]tetraen]-15′-one 13′,13′-dioxide], the IC50 in test [1] (setting [6]) turned out to be 437 nM; in test [2] (setting [5]), 0.263 nM.

For `CO[C@@]1(CN2CCN(Cc3nc(C)c(C)o3)CC2)/C=C/C[C@H](C)[C@@H](C)S(=O)(=O)NC(=O)c2ccc3c(c2)N(C[C@@H]2CC[C@H]21)C[C@@]1(CCCc2cc(Cl)ccc21)CO3` [Example 322, (1S,3′R,6′R,7′S,8′E,11′S,12′R)-6-chloro-7′-((4-((4,5-dimethyl-1,3-oxazol-2-yl)methyl)-1-piperazinyl)methyl)-7′-methoxy-11′,12′-dimethyl-3,4-dihydro-2H,15′H-spiro[naphthalene-1,22′-[20]oxa[13]thia[1,14]diazatetracyclo [14.7.2.0~3,6~.0~19,24~]pentacosa[8,16,18,24]tetraen]-15′-one 13′,13′-dioxide], the IC50 was 87 nM in test [1] (setting [6]) and 0.145 nM in test [2] (setting [5]).

For the compound `CO[C@]1(CN2CCN3C(=O)OC[C@@H]3C2)/C=C/C[C@H](C)[C@@H](C)S(=O)(=O)NC(=O)c2ccc3c(c2)N(C[C@@H]2CC[C@H]21)C[C@@]1(CCCc2cc(Cl)ccc21)CO3` [Example 64, (1S,3′R,6′R,7′R,8′E,11′S,12′R)-6-chloro-7′-methoxy-11′,12′-dimethyl-7′-(((8aS)-3-oxotetrahydro[1,3]oxazolo[3,4-a]pyrazin-7(1H)-yl)methyl)-3,4-dihydro-2H,15′H-spiro[naphthalene-1,22′-[20]oxa[13]thia[1,14]diazatetracyclo [14.7.2.0~3,6~.0~19,24~]pentacosa[8,16,18,24]tetraen]-15′-one 13′,13′-dioxide], the 50% inhibitory concentration (IC50) in test [1] (setting [6]) is 201 nM; in test [2] (setting [5]) it was 0.126 nM.

Regarding `C[C@@H]1[C@@H](C)C/C=C/[C@](O)(C(C)(C)C#N)[C@@H]2CC[C@H]2CN2C[C@@]3(CCCc4cc(Cl)ccc43)COc3ccc(cc32)C(=O)NS1(=O)=O` [Example 100059, 2-((1S,3′R,6′R,7′R,8′E,11′S,12′R)-6-chloro-7′-hydroxy-11′,12′-dimethyl-13′,13′-dioxido-15′-oxo-3,4-dihydro-2H-spiro[naphthalene-1,22′-[20]oxa[13]thia[1,14]diazatetracyclo [14.7.2.0~3,6~.0~19,24~]pentacosa[8,16,18,24]tetraen]-7′-yl)-2-methylpropanenitrile], the IC50 in test [1] (setting [3]) is 3450 nM; in test [2] (setting [4]), 11.9 nM.

Consider `CO[C@]1(c2cncc(CN3CCOCC3)c2)/C=C/C[C@H](C)[C@@H](C)S(=O)(=O)NC(=O)c2ccc3c(c2)N(C[C@@H]2CC[C@H]21)C[C@@]1(CCCc2cc(Cl)ccc21)CO3` (stereo in doubt) [Example 100521], for which the values for the IC50 in test [1] (setting [3]) and in test [2] (setting [4]) were 296 nM and 0.197 nM, respectively.

For the compound `COCCC#C[C@]1(OC)/C=C/C[C@H](C)[C@@H](C)S(=O)(=O)NC(=O)c2ccc3c(c2)N(C[C@@H]2CC[C@H]21)C[C@@]1(CCCc2cc(Cl)ccc21)CO3` [Example 100423, (1S,3′R,6′R,7′S,8′E,11′S,12′R)-6-chloro-7′-methoxy-7′-(4-methoxy-1-butyn-1-yl)-11′,12′-dimethyl-3,4-dihydro-2H,15′H-spiro[naphthalene-1,22′-[20]oxa[13]thia[1,14]diazatetracyclo [14.7.2.0~3,6~.0~19,24~]pentacosa[8,16,18,24]tetraen]-15′-one 13′,13′-dioxide], the IC50 in test [1] (setting [3]) was found to be 99 nM; in test [2] (setting [4]), 0.056 nM.

Consider `C[C@@H]1[C@@H](C)C/C=C/[C@](C)(O)[C@@H]2CC[C@H]2CN2C[C@@]3(CCCc4cc(Cl)ccc43)COc3ccc(cc32)C(=O)NS1(=O)=O` [Example 100016, (1S,3′R,6′R,7′S,8′E,11′S, 12′R)-6-chloro-7′-hydroxy-7′,11′,12′-trimethyl-3,4-dihydro-2H,15′H-spiro[naphthalene-1,22′-[20]oxa[13]thia[1,14]diazatetracyclo[14.7.2.0-3,6˜.0˜19,24˜]pentacosa[8,16,18,24]tetraen]-15′-one 13′,13′-dioxide], for which the IC50 in test [1] (setting [3]) was found to be 132 nM; in test [2] (Mcl-1 HTRF IC50), 0.182 nM.

Take `CO[C@@H](C(=O)N(C)C)[C@]1(O)/C=C/C[C@H](C)[C@@H](C)S(=O)(=O)NC(=O)c2ccc3c(c2)N(C[C@@H]2CC[C@H]21)C[C@@]1(CCCc2cc(Cl)ccc21)CO3` [Example 100285, (2R)-2-((1S,3′R,6′R,7′S,8′E,11′S,12′R)-6-chloro-7′-hydroxy-11′,12′-dimethyl-13′,13′-dioxido-15′-oxo-3,4-dihydro-2H-spiro[naphthalene-1,22′-[20]oxa[13]thia[1,14]diazatetracyclo [14.7.2.0~3,6~.0~19,24~]pentacosa[8,16,18,24]tetraen]-7′-yl)-2-methoxy-N,N-dimethylethanamide]: the values for the concentration for half-maximal inhibition (IC50) in test [1] (setting [3]) and in test [2] (setting [4]) were 642 nM and 0.241 nM, respectively.

For the origin of these results see patent US10821115B2, “Compounds that inhibit Mcl-1 protein” (priority 2017, dated 2020).
